# US8258100B2, “Ligand/lytic peptide methods of use” (Board of Supervisors of Louisiana State University and …, priority 1997, dated 2012)
# Where a SMILES comes first, the peptide text is derived from it. Where no end group is shown, it is not given here.
# Assays:
# [1] = system: LH receptors on the target granulosa cells; experiment: steroid hormone production by granulosa cells; format: cell-based, bovine; settings: data not shown
# Excerpt: (§1) Stimulation of target cell hormone production was not required for cell lysis.
# LH receptors = biological target: T1, LH receptors (Bos taurus, UniProt Q28005); experiment: binding of bLH fragment to LH receptors on granulosa cells; set-up: species or system bovine; settings: data not shown
# T1 construct: endogenous in cells; host or cells: primary bovine granulosa cells from pre-ovulatory follicles
# T1 sequence (Q28005 27-701): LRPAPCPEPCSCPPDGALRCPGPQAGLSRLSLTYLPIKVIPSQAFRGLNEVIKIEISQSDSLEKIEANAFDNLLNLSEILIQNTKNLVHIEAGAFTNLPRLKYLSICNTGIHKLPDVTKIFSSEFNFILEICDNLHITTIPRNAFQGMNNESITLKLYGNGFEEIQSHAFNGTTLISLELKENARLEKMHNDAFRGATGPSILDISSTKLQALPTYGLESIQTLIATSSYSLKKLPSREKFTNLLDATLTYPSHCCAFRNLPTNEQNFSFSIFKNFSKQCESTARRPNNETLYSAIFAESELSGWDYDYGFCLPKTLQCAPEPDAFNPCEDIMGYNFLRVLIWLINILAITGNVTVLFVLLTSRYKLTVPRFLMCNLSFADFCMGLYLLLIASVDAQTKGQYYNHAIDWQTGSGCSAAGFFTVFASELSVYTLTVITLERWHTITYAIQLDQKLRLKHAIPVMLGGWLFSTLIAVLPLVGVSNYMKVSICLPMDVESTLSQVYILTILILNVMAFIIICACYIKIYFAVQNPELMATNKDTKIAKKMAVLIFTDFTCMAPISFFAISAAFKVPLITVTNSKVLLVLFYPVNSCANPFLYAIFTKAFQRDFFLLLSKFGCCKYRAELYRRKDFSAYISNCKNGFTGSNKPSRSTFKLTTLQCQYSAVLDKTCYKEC
# Excerpt: as §1
# female rabbits = experiment: mature female rabbits, intravenous GnRH-hecate, GnRH challenge day 6, sacrifice day 7; format: in vivo, rabbit; settings: 10 mg IV
# Procedure: Nine sexually mature female rabbits were injected intravenously with saline containing 0 mg (n=4) (Treatment 46) or 10 mg GnRH-hecate (n=5) (Treatment 47). Rabbits were injected intramuscularly with GnRH on day 6 posttreatment. Blood samples were collected for radioimmunoassay of LH and FSH as described above, and the animals were sacrificed on day 7 post-treatment. […] The effects of GnRH-hecate on CNS morphology and immunocytochemical results were similar to those described above in Examples 34-45. Again, the effects were more pronounced on GnRH neurons than on staining of pituitary gonadotropes.
# Diatraea saccharalis = experiment: fertility of sugar cane borer after inoculation of late-stage pupae; format: in vivo; settings: 10 pupae inoculated, 1.0 μL of 1.35 mM peptide in saline
# Procedure: Late-stage Diatraea saccharalis (sugar cane borer) pupae were inoculated with 1.0 μL of saline solution containing 1.35 mM concentration of peptide as stated, or saline alone as control. The pupae were allowed to complete metamorphosis. […] Adult female moths were allowed to mate with treated males, and then lay eggs. The viability of the eggs was measured by counting the number hatching into larvae.
# [2] = system: sexually immature female rats; experiment: immature female rats, intravenous GnRH-hecate or GnRH then hecate, histology and immunocytochemistry at 14 days; format: in vivo, rat; settings: as E29
# Procedure: Another set of experiments was performed to study the in vivo effects of the GnRH-hecate conjugate on female rats and rabbits. The ovaries, uterus, oviducts, adrenals, spleen, thyroids, pancreas, liver, lungs, and heart were processed for histological analysis. […] The immunocytochemical staining procedures we used followed generally the procedures of M. Rahmanian et al., “Histological and immunocytochemical characterization of pituitary cell types in ponies,” Proc. 13th Soc. Equine Nutrition & Phys. Symp., pp. 348-349 (1993); M. Rahmanian et al., “Immunocytochemical localization of luteinizing hormone and follicle-stimulating hormone in the equine pituitary,” J. Anim. Sci., vol. 76, pp. 839-846 (1998); M. Rahmanian et al., “Immunocytochemical localization of prolactin and growth hormone in the equine pituitary,” Animal Sci., vol. 75, pp. 3010-3018 (1997); and P. Melrose et al., “Comparative topography of the immunoreactive alpha-melanocyte-stimulating hormone neuronal system in the brains of horses and rats,” Brain Beh. & Evol., vol. 32, pp. 226-235 (1988).
# Brains were serially sectioned on a Vibrotome from the level of the diagonal band of Broca to the mammillary body. […]
# [3] = system: female New Zealand rabbits; experiment: mature female New Zealand rabbits, intravenous GnRH-hecate, GnRH challenge day 46, necropsy day 47; format: in vivo, rabbit; settings: 5 or 10 mg IV
# Procedure: Seven sexually mature female New Zealand rabbits were injected intravenously with saline containing GnRH-hecate as follows:
# Forty-six days later all rabbits were injected intramuscularly with 100 μg GnRH. Blood samples were collected at 0, 1, 4, and 24 hours, and LH and FSH levels in the blood samples were measured by radioimmunoassay. […] The rabbits were sacrificed the next day (day 47) for postmortem histological analysis. […] Ovarian and pituitary weights were reduced by the 10 mg GnRH-hecate treatment.
# [4] = system: sexually immature female rats; experiment: immature female rats, intravenous GnRH-hecate dose series; format: in vivo, rat; settings: 0.1 to 1.5 mg IV, 24 hours or 14 days
# Procedure: Sexually immature (33 day old) female rats (randomly allocated into groups of three) were injected intravenously with saline or GnRH-hecate in saline as follows:
# Animals were sacrificed at 24 hours or at 14 days after treatment. […] In the rats sacrificed fourteen days after treatment, 66% and 87% of the GnRH-receptor-containing neurons were abnormal in the rats that had received 1.0 and 1.5 mg of GnRH-hecate, respectively. Axonal degeneration in the 1.5 mg GnRH-hecate group was accompanied by over 90% reduction in median eminence staining for GnRH.
# [5] = system: Sprague-Dawley female rats; experiment: Sprague-Dawley female rats, single intravenous treatment, necropsy at 48 or 96 hours, PAS stain of pituitary; format: in vivo, rat; settings: D-hecate 674 μg, GnRH 334 μg, GnRH-hecate 1 mg
# Procedure: Eight sexually mature, Sprague-Dawley female rats were randomly assigned to one of eight treatments. Each group of rats received a single treatment intravenously, as described below. Rats were sacrificed and necropsied either 48 or 96 hours after treatment. The ovaries, uterus, pancreas, liver, spleen, lungs, heart, thyroid, and adrenal glands were fixed in 10% buffered formalin; sectioned; and stained with H&E (hematoxylin and eosin) stain; except that the pituitary glands were stained with PAS (periodic acid-Schiff) stain with no counter-stain. The treatments were selected so that each animal received an equimolar amount of the compound with which it was treated.
# GnRH receptor = biological target: T2, GnRH receptor (Rattus norvegicus, UniProt P30969); experiment: displacement of radiolabelled monoiodinated-GnRH from rat pituitary membranes; format: binding
# T2 construct: specifically displaced radiolabelled monoiodinated-GnRH from rat pituitary membranes; from tissue; host or cells: rat pituitary membranes
# T2 sequence (P30969 1-327): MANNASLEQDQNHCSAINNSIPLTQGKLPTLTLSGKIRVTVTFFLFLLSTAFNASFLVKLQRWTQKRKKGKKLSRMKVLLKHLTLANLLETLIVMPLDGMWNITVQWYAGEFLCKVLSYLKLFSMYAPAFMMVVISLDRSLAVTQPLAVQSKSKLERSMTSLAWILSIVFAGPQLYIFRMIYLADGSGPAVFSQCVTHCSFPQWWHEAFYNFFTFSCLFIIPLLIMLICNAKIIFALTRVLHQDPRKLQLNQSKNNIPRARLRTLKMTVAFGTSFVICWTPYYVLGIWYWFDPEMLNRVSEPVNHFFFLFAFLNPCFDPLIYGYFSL
# Excerpt: We also synthesized D-Lys^6GnRH (SEQ. ID NO. 13), so that hecate could be conjugated to the D-Lys^6, a position that could minimize interference with binding of the GnRH domain to the GnRH receptor. These synthetic peptides specifically displaced radiolabelled monoiodinated-GnRH from rat pituitary membranes.
# [6] = system: bovine small luteal cells; experiment: in vitro lysis of bovine small luteal cells (Trypan Blue exclusion, lactic dehydrogenase release); format: cell-based, cattle; settings: 22 hr
# Procedure: We studied in vitro lysis of bovine luteal cells with GnRH-hecate conjugate and with hecate-bLH conjugate (SEQ. ID NO. 12). (The bLH component of the conjugate is a 15-mer fragment of the beta chain of luteinizing hormone, SEQ. ID NO. 11). Small luteal cells were collected from cattle corpora lutea post-slaughter.
# Small luteal cells in culture were incubated with one of the following treatments for 22 hours, and were then examined for viability using Trypan Blue exclusion and release of lactic dehydrogenase.
# bovine granulosa cells = experiment: in vitro lysis of bovine granulosa cells; format: cell-based; settings: 1 μM
# Excerpt: We also studied in vitro lysis of bovine granulosa cells with GnRH-hecate conjugate and with hecate-bLH conjugate. Granulosa cells were isolated from bovine pre-ovulatory follicles. (Granulosa cells are hormonally active cells with numerous LH receptors.) Our experiments with granulosa cells were otherwise generally similar to those described above for Examples 24-31.
# DU145 cells = experiment: in vitro lysis of human prostate cancer cells, Trypan blue exclusion; format: cell-based; settings: 22 hours; GnRH-hecate 50 μM; free hecate 30 μM; hecate-bLH 90 or 60 μM
# Excerpt: (§2) LNCaP FGC and DU145 human prostate cancer cell lines were purchased from the American Type Culture Collection (ATCC, Rockville Md.), ATCC accession numbers CRL 1740 and HTB-81, respectively. The LNCaP FGC adenocarcinoma cell line was originally obtained from a person. LNCaP FGC cells are sensitive to dihydrotestosterone and to estrogens (A+). The DU145 carcinoma was originally isolated from the brain of a person with metastatic carcinoma of the prostate; this cell line is not sensitive to steroid hormones (A−).
# (§3) Cells were detached from culture flasks, and 1000 cells/well were transferred to 24 well culture plates. The cells were incubated for 24 hours with 10% calf serum. Cells were subsequently incubated without serum for 48 hours. Cells were then incubated for 22 hours with one of the following treatments:
# (§4) Trypan blue exclusion was used to assess viability of the cells after treatment. […] However, treatment with a lytic peptide alone may not be selective in vivo unless specific cell types are separately stimulated, for example by hormones controlling their activity.
# LNCaP FGC cells = experiment: as above; format: cell-based
# Excerpt: as §2, §3, §4
compound,measurement,setting,value
"15-mer fragment of the bLH subunit: 15-mer fragment of the beta chain of luteinizing hormone, receptor binding site (SEQ. ID NO. 11) (SYAVALSCQCALCRR)",production of steroid hormones,[1],did not initiate the production of steroid hormones
same,binding to LH receptors on granulosa cells,LH receptors,specifically bound to LH receptors
QHWSYGLRPGFALALKALKKALKKLKKALKKAL [GnRH-hecate],effects on peripheral tissues or pituitary weight,female rabbits,No effects were noticed
same,pupae completing metamorphosis into adult moths,Diatraea saccharalis,Eight
same,C1 and C3 fields of the hippocampus,[2],histological damage to cells
same,pathological changes in other tissues,[2],No pathological changes were noted in any other tissues
same,hippocampus and other areas of the brain containing high concentrations of GnRH,[3],not discernibly affected
same,VP staining in the CNS,[4],not altered
same,gross lesions in the organs,[5],"No gross lesions were noted in the organs of any of the four animals, other than the pituitary"
D-Lys^6GnRH-hecate: hecate conjugated to the D-Lys^6 of D-Lys^6GnRH,"displacement of radiolabelled monoiodinated-GnRH, as measured by cpm",GnRH receptor; rat pituitary membranes,comparable to (and actually slightly greater than) displacement by native mammalian GnRH
"CC(C)C[C@@H](NC(=O)[C@@H](C)NC(=O)[C@@H](CCCCN)NC(=O)[C@@H](CCCCN)NC(=O)[C@@H](CC(C)C)NC(=O)[C@@H](C)NC(=O)[C@@H](CCCCN)NC(=O)[C@@H](CCCCN)NC(=O)[C@@H](CC(C)C)NC(=O)[C@@H](CCCCN)NC(=O)[C@@H](CCCCN)NC(=O)[C@@H](CC(C)C)NC(=O)[C@@H](C)NC(=O)[C@@H](CCCCN)NC(=O)[C@@H](CCCCN)NC(=O)[C@@H](CC(C)C)NC(=O)[C@@H](C)NC(=O)[C@@H](CCCCN)NC(=O)[C@@H](CC(C)C)NC(=O)[C@@H](C)NC(=O)[C@@H](CC(C)C)NC(=O)[C@@H](C)NC(=O)[C@H](N)Cc1ccccc1)C(=O)O [D-hecate, reference compound] (HELM PEPTIDE1{[dF].[dA].[dL].[dA].[dL].[dK].[dA].[dL].[dK].[dK].[dA].[dL].[dK].[dK].[dL].[dK].[dK].[dA].[dL].[dK].[dK].[dA].[dL]}$$$$V2.0)",pupae completing metamorphosis into adult moths,Diatraea saccharalis,Six
same,gross lesions in the organs,[5],No gross lesions
D-Lys^6GnRH: GnRH analog with D-Lys at position 6 (SEQ. ID NO. 13),displacement of radiolabelled peptide relative to equimolar native GnRH,GnRH receptor; molar basis over a 1000-fold concentration range (n=6),187%±8%
hecate-bLH: conjugate of hecate and a 15-mer fragment of the beta chain of luteinizing hormone (SEQ. ID NO. 12) (FALALKALKKALKKLKKALKKALSYAVALSCQCALCRR),number of cells killed relative to hecate alone at the same concentrations,"[6]; 10, 5, 1 μM",approximately twice the number of cells as were killed by hecate alone
same,lactic dehydrogenase activity (cell killing),[6]; versus hecate alone,killed a significantly greater number of cells than did hecate alone
same,cell death of small luteal cells versus hecate alone,"[6]; all three doses (10, 5, 1 μM)",significant increases in cell death as compared to treatment with hecate alone
same,levels of lactic dehydrogenase released,bovine granulosa cells,significantly higher than the levels of enzyme released following treatment with 1 μM hecate alone
same,number of target cells killed relative to hecate alone,bovine granulosa cells,about twice the number of target cells as did hecate alone
same,killing of cells (viability),DU145 cells,killed almost all DU145 cells
same,killing of cells (viability),"LNCaP FGC cells; 22 hours, GnRH-hecate 50 μM, hecate-bLH 90 or 60 μM",had little effect
same,sensitivity of cells to conjugate,"LNCaP FGC cells; FSH pre-treatment, followed by 90 μM hecate-bLH",more sensitive to the hecate-bLH conjugate than those that were not pre-treated
